US12091684B2, “Platelet-derived mitochondria treatment and method of generating multipotent cells” (Hackensack Meridian Health, Inc., priority 2020, dated 2024)

Experiments:
CXCR4 = CXCR4 (Homo sapiens, UniProt P61073); details: 30 μM, 4 hours, purified PB-IPC nuclei with labeled mitochondria
Description: To determine whether the action of SDF-1/CXCR4 contributed to the penetration of mitochondria into nuclei, a blocking experiment with CXCR4 receptor antagonist AMD3100 was performed. The purified PB-IPC's nuclei were treated with MitoTracker Deep Red-labeled purified mitochondria in the presence or absence of AMD 3100 (30 μM). The equal concentration of solvent DMSO served as a control. After 4 hours of the treatment, nuclei were washed twice with PBS and prepared for flow cytometry.

γ-secretase = test: DAPT-blocking experiment (CD34 expression by flow cytometry); assay type: cell-based, human; details: PB-IPCs, 10 μM DAPT, 100 μg/mL mitochondria where present, 7-14 days, n=4
Description: For a DAPT-blocking experiment, PB-IPCs were treated with 100 μg/mL mitochondria plus 10 μM DAPT (Sigma, Saint Louis, MO, USA, Catalog #D5942) for 7-14 days in non-tissue, culture-treated 24-well plates or Petri dishes with serum-free NutriStem® hPSC XF culture medium (Corning, New York, NY, USA), at 37° C. and 8% CO2. Subsequently, both treated and untreated PB-IPC were collected to examine the expression of CD34 by flow cytometry.

CXCR4, sequence (P61073 whole entry): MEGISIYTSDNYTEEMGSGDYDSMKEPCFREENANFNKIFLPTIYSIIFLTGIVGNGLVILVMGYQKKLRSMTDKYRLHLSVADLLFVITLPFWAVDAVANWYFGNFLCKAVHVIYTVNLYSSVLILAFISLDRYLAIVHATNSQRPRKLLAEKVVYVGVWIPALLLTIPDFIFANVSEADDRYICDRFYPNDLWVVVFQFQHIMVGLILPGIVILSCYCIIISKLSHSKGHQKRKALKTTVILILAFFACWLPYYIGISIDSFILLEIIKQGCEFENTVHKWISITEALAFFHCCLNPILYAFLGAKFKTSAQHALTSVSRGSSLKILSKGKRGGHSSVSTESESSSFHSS

| SMILES | percentage of MitoTracker Deep Red-positive nuclei (CXCR4) | percentage of CD34+ cells (γ-secretase) |
| --- | --- | --- |
| c1cc(CN2CCCNCCNCCCNCC2)ccc1CN1CCCNCCNCCCNCC1 [AMD 3100] | markedly reduced | – |
| C[C@H](NC(=O)Cc1cc(F)cc(F)c1)C(=O)N[C@H](C(=O)OC(C)(C)C)c1ccccc1 [DAPT, N—[N-(3,5-difluorophenacetyl)-L-alanyl]-S-phenylglycine t-butyl ester] | – | 2.59%±0.13% |
